Experimental findings from patent US10653705B2, “Applications for estrone in preparing anti-ovarian cancer and/or breast cancer products” (SHANGHAI JIAO TONG UNIVERSITY, priority 2015, dated 2020) are described below.

A value given as a limit tells only on which side of the number the result lay.

What all share (format): cell-based
Assay [1] concerns NCI-H1437 human lung cancer cells. Nature of the assay: CellTiter-Glo luminescent cell viability assay, NCI-H1437 human lung cancer cells. As to conditions: 72 hours.
For assay [2], the system named is NCI-H460 large-cell lung cancer cells. Nature of the assay: CellTiter-Glo luminescent cell viability assay, NCI-H460 large-cell lung cancer cells. As to conditions: Homo sapiens, 72 hours. A general note: ATP-based viability assays read luminescence as a measure of living cells.
In assay [3] the test system is SKOV-3 ovarian cancer cells. Nature of the assay: CellTiter-Glo luminescent cell viability assay, SKOV-3 ovarian cancer cells. The source says:
(§1) In example 1, CELLTITER-GLO was used to test estrone against ovarian cancer and/or breast cancer m) A cell counter was used to count the number of suspended cells and adjust the cell suspension to an appropriate density in the plate to carry out cell plating experiments. SKOV-3 cells were handled as described above, and a SKOV-3 96-well cell culture plate was obtained. The complete medium for SKOV-3 cells was McCOY'S 5A (a live product), Cat #16600082, with a cells/well density of 12000. 2. The drug analyte estrone was prepared and administered (200× final concentration): a) DMSO was used to dilute the analyte estrone to 20 mM for use. b) 79 μL of the 20 mM analyte prepared in step a) was added to the first well in the first row of the dilution plate, and then 54 μL of DMSO solution was added to the second through ninth wells of the first row. […] The final concentrations (μM) of the analyte drug in wells 2-10 in FIG. 1 are, in order: 100, 31.64557, 10.01442, 3.16912, 1.002886, 0.317369, 0.100433, 0.031783, 0.010058; B. CELLTITER-GLO Luminescent Cell Viability Assay System a) Before testing, the SKOV-3 96-well drug screening plate described in 3 above was stabilized to room temperature for 20-30 minutes. c) 100 μl of CellTiter-Glo reagent (prepared as described in 1 above) was added to all drug screening plates and mixed evenly. d) It was thoroughly oscillated in a 96-well microplate oscillator for 2 minutes to allow the cells to undergo full lysis. e) It was stored away from light at room temperature for 15 minutes before carrying out luminescent signal detection to ensure signal stability. f) An EnSpire multi-function plate reader was used at 570 nm to read the luminescent signals. g) Data was processed and analyzed.

In assay [4] the test system is HCC1395 breast cancer cells. As to the kind of experiment: CellTiter-Glo luminescent cell viability assay, HCC1395 breast cancer cells. As to conditions: Homo sapiens, 72 hours. As to the method:
as §1, with “experiments.” for “experiments. SKOV-3 cells were handled as described above, and a SKOV-3 96-well cell culture plate was obtained. The complete medium for SKOV-3 cells was McCOY'S 5A (a live product), Cat #16600082, with a cells/well density of 12000.”, “System” for “System a) Before testing, the SKOV-3 96-well drug screening plate described in 3 above was stabilized to room temperature for 20-30 minutes.”, “analyzed. […]” for “analyzed.”

As usually defined, the IC50 is the concentration that gives 50% inhibition. Read a high IC50 as lower potency. In general, EC50 refers to the concentration at which the effect is half-maximal. A high value points to a less potent agent. Take `C[C@]12CC[C@@H]3c4ccc(O)cc4CC[C@H]3[C@@H]1CCC2=O` [Estrone]: the IC50 in assay [1] was at least 100 µM; in assay [2], at least 100 µM; in assay [3] (Homo sapiens, SK-OV-3, SKOV-3 cells, 72 hours, CellTiter-Glo), 21.5 µM; in assay [4], 68 µM. Moreover, the EC50 was 16.4 µM in assay [3] (Homo sapiens, SK-OV-3, SKOV-3 cells, 72 hours, CellTiter-Glo, FIG. 2) and 74000 µM in assay [4] (FIG. 3). The “effect on the proliferation of ovarian cancer cells” value in assay [3] (compared with the lung cancer cell lines of Table 1) is on record as “specific inhibitory effect”.
